In patent publication US7569700B2, “Substituted, bicyclic 8-pyrrolidinobenzimidazoles, methods for their production and their use as medicaments” (sanofi - aventis, priority 2005, dated 2009):

Biological target: T1, DPP-IV from porcine kidneys (Sus scrofa, UniProt P22411)
T1 construct: DPP-IV from porcine kidneys (Sigma, Munich); purchased Sigma, Munich; host or cells: porcine kidney (tissue-derived enzyme)
Test: Measurement of the DPP-IV activity (fluorimetric conversion of H-Ala-Pro-AFC)
Assay type: biochemical
Settings: at 30 μm compound; DPP-IV 1 mU/ml, H-Ala-Pro-AFC 15 μm, Tris/HCl pH 7.4, room temperature
Protocol: Measurement of the DPP-IV Activity:
DPP-IV from porcine kidneys (Sigma, Munich)
H-Ala-Pro-AFC (Bachem, Weil am Rhein)
DPP-IV (1 mU/ml, end concentration)
H-Ala-Pro-AFC (15 μm end concentration) in Tris/HCl (40 mM, pH 7.4), total volume 0.2 ml
The reaction was performed at room temperature for different periods (typically 10 minutes) and stopped at the end of the reaction by adding 20 μl of ZnCl2 (1 M). The conversion of H-Ala-Pro-AFC was determined fluorimetrically by measuring the emission at 535 nm on excitation at 405 nm. In the case of addition of inhibitors, the buffer volume added was adjusted such that a total volume of the test mixture of 200 μl was maintained.
% inhibition at a fixed concentration was calculated as follows: (1-enzyme activityinhibited reaction/enzyme activityuninhibited reaction)×100

T1 sequence (P22411 whole entry): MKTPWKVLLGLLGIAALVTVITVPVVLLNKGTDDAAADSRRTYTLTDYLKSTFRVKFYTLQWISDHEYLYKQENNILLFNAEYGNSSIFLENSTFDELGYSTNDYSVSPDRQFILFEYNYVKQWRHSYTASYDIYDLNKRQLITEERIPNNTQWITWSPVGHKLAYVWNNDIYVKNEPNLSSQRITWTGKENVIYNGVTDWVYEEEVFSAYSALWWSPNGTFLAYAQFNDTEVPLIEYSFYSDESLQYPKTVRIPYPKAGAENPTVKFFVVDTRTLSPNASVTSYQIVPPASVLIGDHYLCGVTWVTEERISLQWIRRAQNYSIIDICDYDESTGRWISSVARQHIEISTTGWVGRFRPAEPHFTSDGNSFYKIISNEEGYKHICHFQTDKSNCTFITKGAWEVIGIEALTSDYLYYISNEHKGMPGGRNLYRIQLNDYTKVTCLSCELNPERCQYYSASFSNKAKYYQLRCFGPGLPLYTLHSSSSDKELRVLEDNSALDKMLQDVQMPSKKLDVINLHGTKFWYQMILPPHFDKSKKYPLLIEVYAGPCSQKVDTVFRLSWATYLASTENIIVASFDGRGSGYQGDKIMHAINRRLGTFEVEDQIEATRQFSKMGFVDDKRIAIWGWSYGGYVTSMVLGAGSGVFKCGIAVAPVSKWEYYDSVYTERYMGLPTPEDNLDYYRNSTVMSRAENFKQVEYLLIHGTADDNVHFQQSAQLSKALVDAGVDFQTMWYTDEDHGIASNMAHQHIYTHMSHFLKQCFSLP

% inhibition at 30 μm: 25%
Structure (SMILES): CC(C)=CCn1c(N2CCC3CNCC32)nc2ccc(NC(=O)c3ccccc3)cc21 (stereo not shown) [Example 1]
